How the values were obtained:
LPA levels = conditions: as disclosed in literature; cited from earlier work
Human ATX = Human ATX (Homo sapiens (Human), UniProt Q13822); experiment: Assay A: Biochemical ATX Assay; conditions: 5 nM recombinant ATX, 18:1 LPC substrate, 2 h at room temperature, formation of 18:1 LPA
Method: 5 nM recombinant ATX (Cayman Chemicals) was supplemented to 50 mM Tris buffer (pH 8.0) containing 3 mM KCl, 1 mM CaCl2), 1 mM MgCl2 0.14 mM NaCl, and 0.1% bovine serum albumin. Test compounds were dissolved in DMSO and tested in the range of 0.1 nM to 10 μM. The enzymatic reaction (22.5 μL) was started by addition of 2.5 μL 10 μM 18:1 LPC (Avanti Lipids, Alabaster, AL, USA). After 2-h incubation at room temperature, the reaction was stopped by addition of 20 μL water containing 500 nM 20:4 LPA as internal standard and 100 μL 1-butanol for extracting LPA. Subsequently, the plates were centrifuged at 4000 rpm, 4° C., for 2 min. The resultant upper butanol phase was directly used for injection at a RapidFire system (Agilent).
The RapidFire autosampler was coupled to a binary pump (Agilent 1290) and a Triple Quad 6500 (ABSciex, Toronto, Canada). […] 1 The MS was operated in negative mode with a source temperature of 550° C., curtain gas=35, gas 1=65, and gas 2=80. The following transitions and MS parameters (DP: declustering potential and CE: collision energy) for the respective LPAs were determined: 18:1 LPA at 435.2/152.8, DP=−40, CE=−28 and 20:4 LPA at 457.2/152.8, DP=−100, CE=−27).
The formation of 18:1 LPA was monitored and evaluated as ratio to 20:4 LPA.

ATX in human whole blood = ATX in human whole blood (Homo sapiens (Human), UniProt Q13822); experiment: Assay B: Whole-Blood ATX assay; format: biochemical; conditions: 1 h at 37° C., formation of 18:2 LPA
Method: 45 μL human whole-blood was supplemented with 5 μL of the test compound, dissolved in phosphate-buffered saline (concentration range 0.12 nM-100 μM). This mixture was incubated for 1 h at 37° C. and stopped by addition of 100 μL 40 mM disodium hydrogen phosphate buffer containing 30 mM citric acid (pH 4) and 1 μM 17:0 LPA (internal standard). LPA was extracted by addition of 500 μL 1-butanol, followed by 10-min centrifugation at 4000 rpm, 4° C. From the resultant organic supernatant, a 200 μL aliquot was transferred into a 96-deep-well plate and transferred to the RapidFire-based MS/MS measurement.
The RapidFire autosampler was coupled to a binary pump (Agilent 1290) and a Triple Quad 6500 (ABSciex, Toronto, Canada). This system was equipped with a 10-μL loop, 5-μL Waters Atlantis HILIC cartridge (Waters, Elstree, UK), 90% acetonitrile containing 10 mM ammonium acetate as eluent A and 40% acetonitrile containing 10 mM ammoniumacetate as eluent B. For details see (Bretschneider et al., SLAS Discovery, 2017, 22, 425-432). The MS was operated in negative mode with a source temperature of 550° C., curtain gas=35, gas 1=65, and gas 2=80. The following transitions and MS parameters (DP: declustering potential and CE: collision energy) for the respective LPAs were determined: 18:2 LPA at 433.2/152.8, DP=−150, CE=−27 and 17:0 LPA at 423.5/152.8, DP=−100.
The formation of 18:2 LPA was monitored and evaluated as ratio to 17:0 LPA.

[1] = test system: plasma LPA (ATX inhibition); experiment: Assay C: In vivo plasma LPA reduction after oral dosing; conditions: rats, 5 mg/kg, 8 hours post application, sum of LPA vs baseline
Method: The test substance was solubilized in 0.5% natrosol supplemented with 0.015% Tween 80 for oral application to rats at a dose of 5 mg/kg. Blood samples were collected before compound administration and 8 hours post application on ice using EDTA as coagulation agent. Subsequently, plasma was prepared by centrifugation and stored until analysis at −20° C.
LPAs from plasma samples were extracted by using the procedure described by Scherer et al. (Clinical chemistry 2009, 55, 1218-22). 35 μL of heparinized plasma was mixed with 200 μL 40 mM disodium hydrogen phosphate buffer containing 30 mM citric acid (pH 4) and 1 μM 17:0 LPA (internal standard). Subsequently, 500 μL butanol was added and shaken vigorously for 10 min. Samples were centrifuged afterwards at 4000 rpm, 4° C., for 10 min. 500 μL of the organic upper phase was transferred to a fresh 96-deep-well plate and evaporated with a gentle nitrogen flow of 15 psi for 45 min. The resultant residual was dissolved in 100 μL ethanol prior to LC-MS analysis.
LC-MS Method for the Analytic of In Vivo Samples
A Triple Quad 6500 (ABSciex, Toronto, Canada) was equipped with an Agilent 1290 LC system (Agilent, Santa Clara, CA) a CTC autosampler and an Atlantis 50×2.1-mm, 3-μm HILIC LC column (Waters, Elstree, UK). Eluent A contained 0.2% formic acid and 50 mM ammonium formate in water, whereas eluent B consisted of 0.2% formic acid in acetonitrile. […] At 1.8 min, solvent B was set back to 95% and stayed constant for 0.7 min for re-equilibration of the column. The following LPA species were monitored (DP: declustering potential and CE: collision energy): 16:0 LPA at 409.2/152.8, DP=−150, CE=−28; 18:0 LPA at 437.3/152.8, DP=−60, CE=−28; 18:1 LPA at 435.2/152.8, DP=−40, CE=−28; 18:2 LPA at 433.2/152.8, DP=−150, CE=−28; 20:4 LPA at 457.2/152.8, DP=−100, CE=−29 and 17:0 LPA at 423.5/152.8, DP=−100, CE=−36. LPA depletion in percent was calculated based on the baseline LPA levels before test compound application. The sum of LPA refers to the species 16:0; 18:0; 18:1; 18:2 and 20:4

Row | Compound | IC50 (Human ATX) [nM] | IC50 (ATX in human whole blood) [nM] | reduction of LPA levels in vivo (LPA levels) | LPA reduction at 8 h [1] [%]
1 | O=C(NC[C@@H]1[C@H]2CN(C(=O)OCc3cc(C(F)(F)F)cc(C(F)(F)F)c3)C[C@@H]12)c1ccc2[nH]nnc2c1 | – | – | significantly reduces LPA levels in vivo | –
2 | CC(=O)N(C)C1CCN(c2ccc(C3(Nc4ccc(OCc5ccc(C(F)F)nc5)nn4)CC3)cc2)CC1 [Example 1.4] | 5.8 | 4.3 | – | 98.0
3 | CC(=O)N(C)C1CCN(c2ccc(C3(Nc4ccc(OCc5ccc(C(F)F)nc5)nn4)CC3)cc2)C1 (centres unmarked) [Example 1.7] | 6.7 | 7 | – | –
4 | CC(=O)N1CCN(c2ccc([C@@H](CO)Nc3ccc(OCc4ccc(C(F)F)nc4)nn3)cc2)CC1 [Example 1.8] | 4.2 | 1.3 | – | –
5 | CC(=O)N1CCN(c2ccc([C@@H](CO)Nc3ccc(OCc4ccc(C(F)(F)F)nc4)nn3)cc2)CC1 [Example 1.9] | 5.3 | 5 | – | –
6 | CC(=O)N1CCN(c2ccc(C3(Nc4ccc(OCc5ccc(C(F)(F)F)nc5)nn4)CC3)cn2)CC1 [Example 1.11] | 4.4 | 6.9 | – | 96.3
7 | CC(=O)N1CCN(c2ccc(C3(Nc4ccc(OCc5ccc(C(F)(F)F)nc5)nn4)CC3)c(F)c2)CC1 [Example 1.12] | 4.8 | 7.7 | – | –
8 | CCc1nc2c(C)cc(N3CCN(CC(=O)N4CC(O)C4)CC3)cn2c1N(C)c1nc(-c2ccc(F)cc2)c(C#N)s1 [Example 2 in WO2014/139882, reference compound] | – | – | – | 58.1

More lines, in order of falling IC50 (Human ATX), values ahead:

Row | IC50 (Human ATX) [nM] | IC50 (ATX in human whole blood) [nM] | Compound | reduction of LPA levels in vivo (LPA levels) | LPA reduction at 8 h [1] [%]
9 | 4.2 | 4.3 | CC(=O)N1CCN(c2ccc(C3(Nc4ccc(OCc5ccc(C(F)F)nc5)nn4)CC3)cc2)CC1 [Example 1.5] | – | –
10 | 3.4 | 1.8 | CC(=O)N1CCN(c2ccc([C@@H](C)Nc3ccc(OCc4ccc(C(F)(F)F)nc4)nn3)cc2)CC1 [Example 1.2] | – | 95.9
11 | 3.4 | 7.1 | CC(=O)N1CCN(c2ccc(C3(Nc4ccc(OCc5ccc(C(F)(F)F)nc5)nn4)CC3)cc2C)CC1 [Example 1.13] | – | –
12 | 2.6 | 7.8 | CC(=O)N1CCN(c2ccc([C@H](C)Nc3ccc(OCc4ccc(C(F)(F)F)nc4)nn3)cc2)CC1 [Example 1.6] | – | –
13 | 2.5 | 3.5 | CC(=O)N1CCN(c2ccc(C3(Nc4ccc(OCc5ccc(C(F)(F)F)nc5)nn4)CC3)cc2)CC1 [Example 1.1, 1-[4-(4-{1-[(6-{[6-(trifluoromethyl)pyridin-3-yl]methoxy}pyridazin-3-yl)amino]cyclopropyl}phenyl)piperazin-1-yl]ethan-1-one] | – | 97.0
14 | 2.4 | 3.7 | CC(=O)N1CCN(c2ccc(C3(Nc4ccc(OCc5ccc(C(F)(F)F)nc5)nn4)CC3)cc2F)CC1 [Example 1.10] | – | –
15 | 2.2 | 2 | CC(=O)N1CCN(c2ccc(C(C)Nc3ccc(OCc4ccc(C(F)(F)F)nc4)nn3)cc2)CC1 (centres unmarked) [Example 1.3] | – | –
